Results: ChEMBL document CHEMBL3885861, “Open TG-GATES”

Organism: Rattus norvegicus
Assay: Open TG-GATES - Regimen: Daily Repeat
Type: toxicity, organism-based, Sprague-Dawley
Set-up: regimen Daily Repeat, gender Male, age 6 weeks
Conditions: in vivo, po, 40 mg/kg, route gavage, dose level Low; for APTT / Bas / Eos / Fbg / Hb / Ht / Lym / MCH / MCHC / MCV / Mono / Neu / PT / Plat / RBC / Ret / WBC: tissue Blood; for KIDNEY_L / KIDNEY_R / KIDNEY_TOTAL: tissue Kidney; for LIVER: tissue Liver; for A/G / ALP / ALT / AST / BUN / CRE / Ca / Cl / DBIL / GLC / IP / K / LDH / Na / PL / RALB / TBIL / TC / TG / TP / gamma-GTP: tissue Plasma

Cc1cccc(C)c1OCC(C)N (configuration not stated) [MEXILETINE]
TERMINAL_BW (72 h, time 3 day): 247.9 g
APTT (72 h, time 3 day): 21.7 s
Bas (72 h, time 3 day): 0%
Eos (72 h, time 3 day): 0.8%
Fbg (72 h, time 3 day): 327.2 mg/dL
Hb (72 h, time 3 day): 13 g/dL
Ht (72 h, time 3 day): 39.6%
Lym (72 h, time 3 day): 79.8%
MCH (72 h, time 3 day): 20.3 pg
MCHC (72 h, time 3 day): 32.7%
MCV (72 h, time 3 day): 62.1 fL
Mono (72 h, time 3 day): 3.2%
Neu (72 h, time 3 day): 15.6%
PT (72 h, time 3 day): 15.2 s
Plat (72 h, time 3 day): 118.3 x10_4/uL
RBC (72 h, time 3 day): 638.4 x10_4/ul
Ret (72 h, time 3 day): 6.1%
WBC (72 h, time 3 day): 92 x10_2/uL
KIDNEY_L (72 h, time 3 day): 1.1 g
KIDNEY_R (72 h, time 3 day): 1.1 g
KIDNEY_TOTAL (72 h, time 3 day): 2.1 g
LIVER (72 h, time 3 day): 12.1 g
A/G (72 h, time 3 day): 1.3
ALP (72 h, time 3 day): 1808.2 IU/L
ALT (72 h, time 3 day): 47.4 IU/L
AST (72 h, time 3 day): 72.6 IU/L
BUN (72 h, time 3 day): 16.2 mg/dL
CRE (72 h, time 3 day): 0.1 mg/dL
Ca (72 h, time 3 day): 10.5 mg/dL
Cl (72 h, time 3 day): 105.2 meq/L
DBIL (72 h, time 3 day): 0 mg/dL
GLC (72 h, time 3 day): 192.4 mg/dL
IP (72 h, time 3 day): 7.7 mg/dL
K (72 h, time 3 day): 4.4 meq/L
LDH (72 h, time 3 day): 147.4 IU/L
Na (72 h, time 3 day): 141 meq/L
PL (72 h, time 3 day): 151 mg/dL
RALB (72 h, time 3 day): 3.2 g/dL
TBIL (72 h, time 3 day): 0.006 mg/dL
TC (72 h, time 3 day): 77.6 mg/dL
TG (72 h, time 3 day): 133.8 mg/dL
TP (72 h, time 3 day): 5.6 g/dL
gamma-GTP (72 h, time 3 day): 1.6 IU/L
TERMINAL_BW ([…], time 7 day): 275.8 g
TERMINAL_BW ([…], time 14 day): 338.1 g
TERMINAL_BW ([…], time 28 day): 397.8 g
APTT ([…], time 7 day): 22.5 s
Bas ([…], time 7 day): 0%
Eos ([…], time 7 day): 1%
Fbg ([…], time 7 day): 317.4 mg/dL
Hb ([…], time 7 day): 13 g/dL
Ht ([…], time 7 day): 39.9%
Lym ([…], time 7 day): 81%
MCH ([…], time 7 day): 20.4 pg
MCHC ([…], time 7 day): 32.5%
MCV ([…], time 7 day): 62.8 fL
Mono ([…], time 7 day): 2.4%
Neu ([…], time 7 day): 15%
PT ([…], time 7 day): 16 s
Plat ([…], time 7 day): 107.4 x10_4/uL
RBC ([…], time 7 day): 634.4 x10_4/ul
Ret ([…], time 7 day): 6.2%
WBC ([…], time 7 day): 105.8 x10_2/uL
APTT ([…], time 14 day): 20.9 s
Bas ([…], time 14 day): 0%
Eos ([…], time 14 day): 0.4%
Fbg ([…], time 14 day): 302.8 mg/dL
Hb ([…], time 14 day): 13.1 g/dL
Ht ([…], time 14 day): 40.8%
Lym ([…], time 14 day): 80.4%
MCH ([…], time 14 day): 20.6 pg
MCHC ([…], time 14 day): 32.1%
MCV ([…], time 14 day): 64.2 fL
Mono ([…], time 14 day): 2.2%
Neu ([…], time 14 day): 16%
PT ([…], time 14 day): 15.9 s
Plat ([…], time 14 day): 119 x10_4/uL
RBC ([…], time 14 day): 634.2 x10_4/ul
Ret ([…], time 14 day): 7.8%
WBC ([…], time 14 day): 92.2 x10_2/uL
APTT ([…], time 28 day): 22.8 s
Bas ([…], time 28 day): 0%
Eos ([…], time 28 day): 1%
Fbg ([…], time 28 day): 323.4 mg/dL
Hb ([…], time 28 day): 14.9 g/dL
Ht ([…], time 28 day): 43.2%
Lym ([…], time 28 day): 79.8%
MCH ([…], time 28 day): 19.4 pg
MCHC ([…], time 28 day): 34.5%
MCV ([…], time 28 day): 56.3 fL
Mono ([…], time 28 day): 2.4%
Neu ([…], time 28 day): 15.6%
PT ([…], time 28 day): 15.9 s
Plat ([…], time 28 day): 101.8 x10_4/uL
RBC ([…], time 28 day): 766.6 x10_4/ul
Ret ([…], time 28 day): 2.8%
WBC ([…], time 28 day): 104.7 x10_2/uL
KIDNEY_L ([…], time 7 day): 1.1 g
KIDNEY_R ([…], time 7 day): 1.1 g
KIDNEY_TOTAL ([…], time 7 day): 2.2 g
KIDNEY_L ([…], time 14 day): 1.3 g
KIDNEY_R ([…], time 14 day): 1.3 g
KIDNEY_TOTAL ([…], time 14 day): 2.6 g
KIDNEY_L ([…], time 28 day): 1.4 g
KIDNEY_R ([…], time 28 day): 1.4 g
KIDNEY_TOTAL ([…], time 28 day): 2.9 g
LIVER ([…], time 7 day): 12.7 g
LIVER ([…], time 14 day): 15.2 g
LIVER ([…], time 28 day): 17.1 g
A/G ([…], time 7 day): 1.2
ALP ([…], time 7 day): 1628.6 IU/L
ALT ([…], time 7 day): 47.8 IU/L
AST ([…], time 7 day): 72.4 IU/L
BUN ([…], time 7 day): 19.6 mg/dL
CRE ([…], time 7 day): 0.2 mg/dL
Ca ([…], time 7 day): 10.6 mg/dL
Cl ([…], time 7 day): 105.6 meq/L
DBIL ([…], time 7 day): 0 mg/dL
GLC ([…], time 7 day): 190 mg/dL
IP ([…], time 7 day): 7.2 mg/dL
K ([…], time 7 day): 4 meq/L
LDH ([…], time 7 day): 162.8 IU/L
Na ([…], time 7 day): 143.2 meq/L
PL ([…], time 7 day): 145.2 mg/dL
RALB ([…], time 7 day): 3 g/dL
TBIL ([…], time 7 day): 0.002 mg/dL
TC ([…], time 7 day): 82 mg/dL
TG ([…], time 7 day): 108.8 mg/dL
TP ([…], time 7 day): 5.6 g/dL
gamma-GTP ([…], time 7 day): 1.8 IU/L
A/G ([…], time 14 day): 1.1
ALP ([…], time 14 day): 1520 IU/L
ALT ([…], time 14 day): 43.4 IU/L
AST ([…], time 14 day): 69.6 IU/L
BUN ([…], time 14 day): 18.6 mg/dL
CRE ([…], time 14 day): 0.2 mg/dL
Ca ([…], time 14 day): 10.5 mg/dL
Cl ([…], time 14 day): 106.8 meq/L
DBIL ([…], time 14 day): 0 mg/dL
GLC ([…], time 14 day): 196.8 mg/dL
IP ([…], time 14 day): 6.8 mg/dL
K ([…], time 14 day): 4.2 meq/L
LDH ([…], time 14 day): 154.2 IU/L
Na ([…], time 14 day): 141.4 meq/L
PL ([…], time 14 day): 152.8 mg/dL
RALB ([…], time 14 day): 3 g/dL
TBIL ([…], time 14 day): 0.002 mg/dL
TC ([…], time 14 day): 80.4 mg/dL
TG ([…], time 14 day): 136.8 mg/dL
TP ([…], time 14 day): 5.9 g/dL
gamma-GTP ([…], time 14 day): 2.4 IU/L
A/G ([…], time 28 day): 1
ALP ([…], time 28 day): 1106 IU/L
ALT ([…], time 28 day): 37.8 IU/L
AST ([…], time 28 day): 62.4 IU/L
BUN ([…], time 28 day): 17.6 mg/dL
CRE ([…], time 28 day): 0.2 mg/dL
Ca ([…], time 28 day): 10.5 mg/dL
Cl ([…], time 28 day): 106 meq/L
DBIL ([…], time 28 day): 0 mg/dL
GLC ([…], time 28 day): 197.2 mg/dL
IP ([…], time 28 day): 6.5 mg/dL
K ([…], time 28 day): 3.8 meq/L
LDH ([…], time 28 day): 154.6 IU/L
Na ([…], time 28 day): 142.8 meq/L
PL ([…], time 28 day): 146.4 mg/dL
RALB ([…], time 28 day): 3.1 g/dL
TBIL ([…], time 28 day): 0.014 mg/dL
TC ([…], time 28 day): 67.8 mg/dL
TG ([…], time 28 day): 174.2 mg/dL
TP ([…], time 28 day): 6.1 g/dL
gamma-GTP ([…], time 28 day): 2.4 IU/L
